From the supplement of paper PMC10307832 come the findings set out here.

What all share (assay): relative viability (nuclei count vs DMSO), 5 days (fraction); higher = more cells survive
Compound in the experiment “Pazopanib + Foretinib”: Cc1ccc(Nc2nccc(N(C)c3ccc4c(C)n(C)nc4c3)n2)cc1S(N)(=O)=O [Pazopanib] + COc1cc2c(Oc3ccc(NC(=O)C4(C(=O)Nc5ccc(F)cc5)CC4)cc3F)ccnc2cc1OCCCN1CCOCC1 [Foretinib] (partner 0.25 µM)
In short, it runs like this:
(§1)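 Dosing by pin tool came one day after lung cancer cell lines were seeded in 1536-well plates, using either one drug or a fixed anchor-drug dose plus five library-drug doses (not always all listed) in √10 steps. After 5 days, nuclei were counted on 4× images. Relative viability is treated-well nuclei count divided by vehicle-well nuclei count, and values are medians of duplicate plates.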

Compound in the experiment “Ponatinib + Tozasertib”: Cc1ccc(C(=O)Nc2ccc(CN3CCN(C)CC3)c(C(F)(F)F)c2)cc1C#Cc1cnc2cccnn12 [Ponatinib] + Cc1cc(Nc2cc(N3CCN(C)CC3)nc(Sc3ccc(NC(=O)C4CC4)cc3)n2)n[nH]1 [Tozasertib] (partner 0.1 µM)
A digest of the protocol: as §1

Compound in the experiment “Pazopanib + Linsitinib”: Cc1ccc(Nc2nccc(N(C)c3ccc4c(C)n(C)nc4c3)n2)cc1S(N)(=O)=O [Pazopanib] + C[C@]1(O)C[C@@H](c2nc(-c3ccc4ccc(-c5ccccc5)nc4c3)c3c(N)nccn32)C1 [Linsitinib] (partner 1 µM)
A digest of the protocol:
as §1

Compound in the experiment “Pazopanib + Bortezomib”: Cc1ccc(Nc2nccc(N(C)c3ccc4c(C)n(C)nc4c3)n2)cc1S(N)(=O)=O [Pazopanib] + CC(C)C[C@H](NC(=O)[C@H](Cc1ccccc1)NC(=O)c1cnccn1)B(O)O [Bortezomib] (partner 0.002 µM)
In short, it runs like this:
as §1

As to LOU-NH91, the relative viability with Pazopanib + Foretinib (first compound 0.01 µM) is 0.898; with Pazopanib + Foretinib (first compound 0.03162 µM) it was 0.92; in the experiment with Pazopanib + Foretinib (first compound 0.1 µM), 0.945; with Pazopanib + Foretinib (first compound 0.3162 µM), 0.967; with Pazopanib + Foretinib (first compound 1 µM) it was 0.948; with Ponatinib + Tozasertib (first compound 0.002 µM) it was 0.65. The relative viability came to 0.668 with Ponatinib + Tozasertib (first compound 0.006325 µM); 0.71 with Ponatinib + Tozasertib (first compound 0.06325 µM); 0.595 with Ponatinib + Tozasertib (first compound 0.2 µM); 0.89 with Pazopanib + Linsitinib (first compound 0.01 µM); 0.98 in the experiment with Pazopanib + Linsitinib (first compound 0.03162 µM); 0.984 in the experiment with Pazopanib + Linsitinib (first compound 0.1 µM). For the same cell line, the relative viability turned out to be 1.04 in the experiment with Pazopanib + Linsitinib (first compound 0.3162 µM); 0.935 in the experiment with Pazopanib + Linsitinib (first compound 1 µM); 0.484 in the experiment with Pazopanib + Bortezomib (first compound 0.01 µM); 0.481 with Pazopanib + Bortezomib (first compound 0.03162 µM); 0.496 in the experiment with Pazopanib + Bortezomib (first compound 0.1 µM); 0.475 with Pazopanib + Bortezomib (first compound 0.3162 µM). In addition, in the experiment with Pazopanib + Bortezomib (first compound 1 µM), the relative viability was 0.506.
With LU99A, the relative viability came out at 0.772 in the experiment with Pazopanib + Foretinib (first compound 0.01 µM); 0.906 with Pazopanib + Foretinib (first compound 0.03162 µM); 0.878 with Pazopanib + Foretinib (first compound 0.1 µM); 0.864 with Pazopanib + Foretinib (first compound 0.3162 µM); 0.837 with Pazopanib + Foretinib (first compound 1 µM); 0.227 with Ponatinib + Tozasertib (first compound 0.002 µM). The relative viability with Ponatinib + Tozasertib (first compound 0.006325 µM) was 0.293; with Ponatinib + Tozasertib (first compound 0.06325 µM), 0.251; with Ponatinib + Tozasertib (first compound 0.2 µM), 0.263; with Pazopanib + Linsitinib (first compound 0.01 µM), 0.377; with Pazopanib + Linsitinib (first compound 0.03162 µM), 0.522; in the experiment with Pazopanib + Linsitinib (first compound 0.1 µM), 0.589. Also, the relative viability was 0.565 with Pazopanib + Linsitinib (first compound 0.3162 µM); 0.52 with Pazopanib + Linsitinib (first compound 1 µM); 0.913 in the experiment with Pazopanib + Bortezomib (first compound 0.01 µM); 1.18 with Pazopanib + Bortezomib (first compound 0.03162 µM); 1.18 with Pazopanib + Bortezomib (first compound 0.1 µM); 1.25 in the experiment with Pazopanib + Bortezomib (first compound 0.3162 µM). For the same cell line, the relative viability with Pazopanib + Bortezomib (first compound 1 µM) is 1.25.
Take LXF-289: the relative viability with Pazopanib + Foretinib (first compound 0.01 µM) stood at 1.06; in the experiment with Pazopanib + Foretinib (first compound 0.03162 µM) it was 1.06; with Pazopanib + Foretinib (first compound 0.1 µM), 1.08; with Pazopanib + Foretinib (first compound 0.3162 µM), 0.99; with Pazopanib + Foretinib (first compound 1 µM), 0.996; in the experiment with Ponatinib + Tozasertib (first compound 0.002 µM) it was 0.205. The relative viability amounted to 0.262 with Ponatinib + Tozasertib (first compound 0.006325 µM); 0.21 in the experiment with Ponatinib + Tozasertib (first compound 0.06325 µM); 0.148 with Ponatinib + Tozasertib (first compound 0.2 µM); 0.973 with Pazopanib + Linsitinib (first compound 0.01 µM); 0.957 with Pazopanib + Linsitinib (first compound 0.03162 µM); 0.921 with Pazopanib + Linsitinib (first compound 0.1 µM). The relative viability with Pazopanib + Linsitinib (first compound 0.3162 µM) was found to be 0.93; with Pazopanib + Linsitinib (first compound 1 µM) it was 0.98; with Pazopanib + Bortezomib (first compound 0.01 µM) it was 0.998; with Pazopanib + Bortezomib (first compound 0.03162 µM), 1.02; with Pazopanib + Bortezomib (first compound 0.1 µM), 0.993; in the experiment with Pazopanib + Bortezomib (first compound 0.3162 µM), 0.91. The relative viability in the experiment with Pazopanib + Bortezomib (first compound 1 µM) is 0.956.
Take NCI-H23: the relative viability came out at 1.1 in the experiment with Pazopanib + Foretinib (first compound 0.01 µM); 1.02 with Pazopanib + Foretinib (first compound 0.03162 µM); 0.964 with Pazopanib + Foretinib (first compound 0.1 µM); 0.947 with Pazopanib + Foretinib (first compound 0.3162 µM); 1.12 with Pazopanib + Foretinib (first compound 1 µM); 0.351 with Ponatinib + Tozasertib (first compound 0.002 µM). Also, the relative viability with Ponatinib + Tozasertib (first compound 0.006325 µM) worked out at 0.419; in the experiment with Ponatinib + Tozasertib (first compound 0.06325 µM), 0.25; with Ponatinib + Tozasertib (first compound 0.2 µM), 0.197; with Pazopanib + Linsitinib (first compound 0.01 µM), 0.505; in the experiment with Pazopanib + Linsitinib (first compound 0.03162 µM), 0.629; with Pazopanib + Linsitinib (first compound 0.1 µM), 0.556. Also, the relative viability with Pazopanib + Linsitinib (first compound 0.3162 µM) stood at 0.567; with Pazopanib + Linsitinib (first compound 1 µM), 0.842; in the experiment with Pazopanib + Bortezomib (first compound 0.01 µM), 0.813; in the experiment with Pazopanib + Bortezomib (first compound 0.03162 µM) it was 1.1; in the experiment with Pazopanib + Bortezomib (first compound 0.1 µM) it was 1.11; with Pazopanib + Bortezomib (first compound 0.3162 µM), 1.07. In addition, the relative viability with Pazopanib + Bortezomib (first compound 1 µM) stood at 1.41.
For NCI-H322M, the relative viability with Pazopanib + Foretinib (first compound 0.01 µM) was determined as 0.908; with Pazopanib + Foretinib (first compound 0.03162 µM), 1.25; in the experiment with Pazopanib + Foretinib (first compound 0.1 µM), 0.921; with Pazopanib + Foretinib (first compound 0.3162 µM), 0.966; with Pazopanib + Foretinib (first compound 1 µM), 0.93; in the experiment with Ponatinib + Tozasertib (first compound 0.002 µM) it was 0.429. For the same cell line, the relative viability with Ponatinib + Tozasertib (first compound 0.006325 µM) came to 0.412; in the experiment with Ponatinib + Tozasertib (first compound 0.06325 µM), 0.41; with Ponatinib + Tozasertib (first compound 0.2 µM) it was 0.423; with Pazopanib + Linsitinib (first compound 0.01 µM), 0.772; with Pazopanib + Linsitinib (first compound 0.03162 µM), 1.06; with Pazopanib + Linsitinib (first compound 0.1 µM) it was 0.899. Moreover, the relative viability amounted to 1.05 with Pazopanib + Linsitinib (first compound 0.3162 µM); 0.972 with Pazopanib + Linsitinib (first compound 1 µM); 1.09 with Pazopanib + Bortezomib (first compound 0.01 µM); 1.34 with Pazopanib + Bortezomib (first compound 0.03162 µM); 1.35 in the experiment with Pazopanib + Bortezomib (first compound 0.1 µM); 1.32 with Pazopanib + Bortezomib (first compound 0.3162 µM). Further, the relative viability in the experiment with Pazopanib + Bortezomib (first compound 1 µM) stood at 1.21.
Regarding NCI-H441, the relative viability amounted to 0.974 in the experiment with Pazopanib + Foretinib (first compound 0.01 µM); 1.14 with Pazopanib + Foretinib (first compound 0.03162 µM); 0.859 with Pazopanib + Foretinib (first compound 0.1 µM); 1 with Pazopanib + Foretinib (first compound 0.3162 µM); 0.857 with Pazopanib + Foretinib (first compound 1 µM); 0.602 with Ponatinib + Tozasertib (first compound 0.002 µM). Further, the relative viability came to 0.529 with Ponatinib + Tozasertib (first compound 0.006325 µM); 0.588 with Ponatinib + Tozasertib (first compound 0.06325 µM); 0.488 with Ponatinib + Tozasertib (first compound 0.2 µM); 0.536 with Pazopanib + Linsitinib (first compound 0.01 µM); 0.528 in the experiment with Pazopanib + Linsitinib (first compound 0.03162 µM); 0.558 in the experiment with Pazopanib + Linsitinib (first compound 0.1 µM). In addition, the relative viability with Pazopanib + Linsitinib (first compound 0.3162 µM) came out at 0.5; with Pazopanib + Linsitinib (first compound 1 µM) it was 0.612; with Pazopanib + Bortezomib (first compound 0.01 µM), 0.377; with Pazopanib + Bortezomib (first compound 0.03162 µM) it was 0.384; in the experiment with Pazopanib + Bortezomib (first compound 0.1 µM), 0.665; with Pazopanib + Bortezomib (first compound 0.3162 µM), 0.324. Also, in the experiment with Pazopanib + Bortezomib (first compound 1 µM), the relative viability was found to be 0.434.
As for NCI-H460, the relative viability was 0.942 with Pazopanib + Foretinib (first compound 0.01 µM); 1.07 with Pazopanib + Foretinib (first compound 0.03162 µM); 1.01 in the experiment with Pazopanib + Foretinib (first compound 0.1 µM); 1.03 with Pazopanib + Foretinib (first compound 0.3162 µM); 0.997 with Pazopanib + Foretinib (first compound 1 µM); 0.407 with Ponatinib + Tozasertib (first compound 0.002 µM). Also, the relative viability worked out at 0.526 in the experiment with Ponatinib + Tozasertib (first compound 0.006325 µM); 0.19 with Ponatinib + Tozasertib (first compound 0.06325 µM); 0.0908 in the experiment with Ponatinib + Tozasertib (first compound 0.2 µM); 0.823 with Pazopanib + Linsitinib (first compound 0.01 µM); 1.13 with Pazopanib + Linsitinib (first compound 0.03162 µM); 0.838 with Pazopanib + Linsitinib (first compound 0.1 µM). Besides, the relative viability was determined as 0.98 with Pazopanib + Linsitinib (first compound 0.3162 µM); 0.827 in the experiment with Pazopanib + Linsitinib (first compound 1 µM); 1.03 with Pazopanib + Bortezomib (first compound 0.01 µM); 1.23 with Pazopanib + Bortezomib (first compound 0.03162 µM); 1.2 with Pazopanib + Bortezomib (first compound 0.1 µM); 1.14 in the experiment with Pazopanib + Bortezomib (first compound 0.3162 µM). In addition, in the experiment with Pazopanib + Bortezomib (first compound 1 µM), the relative viability stood at 1.13.
